What was measured:
GABAAα5 receptor = molecular target: T1, GABAAα5 receptor (Rattus norvegicus, UniProt P18508+P19969); assay: in vivo; assay type: in vivo, Long Evans rats; details: i.v.
T1 construct: occupancy in the hippocampus (a region of high GABAAα5 receptor density); from tissue; host or cells: rat brain in vivo: hippocampus versus cerebellum
Description: Food and water were available ad libitum.

α5β3γ2 GABAA receptors = α5β3γ2 GABAA receptors (Homo sapiens, UniProt P18507+P31644); assay: [3H]Ro15-1788 binding, membranes of Ltk cells stably expressing α5β3γ2 GABAA receptors; details: ranges; inhibition of [3H]Ro15-1788 binding
Sequence of α5β3γ2 GABAA receptors (P31644 32-462): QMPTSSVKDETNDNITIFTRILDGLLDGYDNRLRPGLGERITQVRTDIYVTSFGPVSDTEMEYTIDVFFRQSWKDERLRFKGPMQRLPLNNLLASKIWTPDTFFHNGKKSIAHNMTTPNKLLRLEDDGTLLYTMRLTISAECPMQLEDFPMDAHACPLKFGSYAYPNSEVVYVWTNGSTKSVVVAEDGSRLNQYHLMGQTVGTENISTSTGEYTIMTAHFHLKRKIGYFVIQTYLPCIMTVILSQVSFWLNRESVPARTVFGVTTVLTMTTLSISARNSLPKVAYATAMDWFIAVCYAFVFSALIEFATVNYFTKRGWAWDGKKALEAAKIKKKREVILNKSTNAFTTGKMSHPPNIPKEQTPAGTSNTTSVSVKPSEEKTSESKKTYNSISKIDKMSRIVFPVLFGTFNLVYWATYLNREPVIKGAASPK
Sequence of α5β3γ2 GABAA receptors (P28472 26-473 partner): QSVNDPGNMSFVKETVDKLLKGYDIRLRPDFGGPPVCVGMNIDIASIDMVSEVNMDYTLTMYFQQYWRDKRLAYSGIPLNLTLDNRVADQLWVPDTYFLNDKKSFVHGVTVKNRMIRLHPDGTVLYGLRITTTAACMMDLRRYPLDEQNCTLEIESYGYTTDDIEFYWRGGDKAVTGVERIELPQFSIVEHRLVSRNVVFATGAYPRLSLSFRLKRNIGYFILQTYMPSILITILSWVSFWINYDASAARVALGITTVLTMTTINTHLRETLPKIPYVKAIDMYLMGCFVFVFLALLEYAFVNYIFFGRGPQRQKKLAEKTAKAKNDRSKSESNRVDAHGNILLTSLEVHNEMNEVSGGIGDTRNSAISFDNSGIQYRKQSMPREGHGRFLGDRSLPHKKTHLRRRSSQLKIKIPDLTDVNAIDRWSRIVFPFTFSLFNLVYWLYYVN
Sequence of α5β3γ2 GABAA receptors (P18507 40-475): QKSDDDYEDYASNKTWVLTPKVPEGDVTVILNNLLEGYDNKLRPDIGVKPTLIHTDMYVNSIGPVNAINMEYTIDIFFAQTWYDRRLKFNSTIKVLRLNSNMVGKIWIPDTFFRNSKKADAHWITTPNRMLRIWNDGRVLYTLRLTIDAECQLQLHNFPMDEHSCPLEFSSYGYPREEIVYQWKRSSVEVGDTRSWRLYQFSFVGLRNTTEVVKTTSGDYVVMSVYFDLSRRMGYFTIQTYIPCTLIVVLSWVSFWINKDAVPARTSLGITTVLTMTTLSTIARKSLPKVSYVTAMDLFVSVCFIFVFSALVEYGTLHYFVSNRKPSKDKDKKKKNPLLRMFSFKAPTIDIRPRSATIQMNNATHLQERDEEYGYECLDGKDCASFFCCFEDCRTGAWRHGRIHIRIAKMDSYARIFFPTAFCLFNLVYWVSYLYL

GABAA receptors (α5β2γ2) = molecular target: T2, GABAA receptors (α5β2γ2) (Homo sapiens, UniProt P18507+P31644); assay: Positive allosteric modulator activity: potentiation of EC20 GABA current in oocytes; assay type: cell-based; details: read-out: GABA α5 Functional Data (potentiation of EC20 GABA); @ 100 nM; ranges
T2 construct: expressed in transfected cells
T2 sequence (P31644 32-462): as the sequence (P31644 32-462) above
T2 sequence (P47870 25-512, further chain): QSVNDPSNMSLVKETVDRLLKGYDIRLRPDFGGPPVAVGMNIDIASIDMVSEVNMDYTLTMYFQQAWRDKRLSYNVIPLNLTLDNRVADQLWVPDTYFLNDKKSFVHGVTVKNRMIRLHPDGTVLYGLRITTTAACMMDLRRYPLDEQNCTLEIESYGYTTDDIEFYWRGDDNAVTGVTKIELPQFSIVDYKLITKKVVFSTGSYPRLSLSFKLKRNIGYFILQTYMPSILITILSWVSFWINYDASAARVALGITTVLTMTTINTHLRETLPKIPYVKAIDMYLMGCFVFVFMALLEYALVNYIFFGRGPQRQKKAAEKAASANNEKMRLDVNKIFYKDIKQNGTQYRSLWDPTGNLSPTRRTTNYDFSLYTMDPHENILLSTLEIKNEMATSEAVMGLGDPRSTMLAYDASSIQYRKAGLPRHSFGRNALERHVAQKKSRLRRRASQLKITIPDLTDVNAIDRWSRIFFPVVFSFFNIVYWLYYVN
T2 sequence (P18507 40-475): as the sequence (P18507 40-475) above
In short: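 Oocytes were injected with 1 ng cDNA (α5:β2:γ2 1:1:10 by weight) and recorded on day 2 (day 3 with 20% less cDNA) by two-electrode clamp (3M KCl electrodes, 0.5-3 megaohms) under MBS superfusion at 3 mL/min. Potentiation (%) is Itest divided by IGABA. Each oocyte received one concentration only.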

T1 sequence (P19969 32-464): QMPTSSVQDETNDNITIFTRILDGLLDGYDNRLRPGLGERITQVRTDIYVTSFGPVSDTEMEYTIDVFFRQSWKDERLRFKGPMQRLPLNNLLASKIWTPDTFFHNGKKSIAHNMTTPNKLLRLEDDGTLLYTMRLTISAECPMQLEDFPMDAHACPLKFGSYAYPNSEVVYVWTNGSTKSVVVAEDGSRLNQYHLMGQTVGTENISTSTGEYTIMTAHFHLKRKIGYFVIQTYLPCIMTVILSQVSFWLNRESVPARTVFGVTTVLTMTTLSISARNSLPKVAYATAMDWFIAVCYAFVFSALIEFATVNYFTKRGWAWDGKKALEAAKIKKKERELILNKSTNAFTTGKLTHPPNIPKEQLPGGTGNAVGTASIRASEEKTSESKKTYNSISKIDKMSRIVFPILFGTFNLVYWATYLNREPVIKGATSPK
T1 sequence (P18508 39-466): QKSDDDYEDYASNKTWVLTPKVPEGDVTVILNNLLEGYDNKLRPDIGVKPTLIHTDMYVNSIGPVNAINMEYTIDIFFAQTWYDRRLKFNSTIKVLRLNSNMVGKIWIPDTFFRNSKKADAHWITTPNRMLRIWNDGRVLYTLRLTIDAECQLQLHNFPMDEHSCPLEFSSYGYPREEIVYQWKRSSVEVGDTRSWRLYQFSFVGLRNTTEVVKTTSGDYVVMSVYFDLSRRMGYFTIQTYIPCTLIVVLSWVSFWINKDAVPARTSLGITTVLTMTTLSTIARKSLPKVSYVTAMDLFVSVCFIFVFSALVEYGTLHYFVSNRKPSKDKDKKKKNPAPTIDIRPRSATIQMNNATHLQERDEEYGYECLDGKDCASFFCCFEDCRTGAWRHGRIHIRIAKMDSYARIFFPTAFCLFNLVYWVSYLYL

Molecule | Ki (α5β3γ2 GABAA receptors) | activation at 0.1 µM (GABAA receptors (α5β2γ2)) | further results
Ro 15-4513 | – | – | levels of Ro 15-4513 in cerebellum (GABAAα5 receptor; tracer 1 μg/kg, after vehicle): 0.36 ± 0.02 ng/g; levels of Ro 15-4513 in hippocampus (GABAAα5 receptor; tracer 1 μg/kg, after vehicle): 1.93 ± 0.05 ng/g; levels of Ro 15-4513 in hippocampus compared with cerebellum (GABAAα5 receptor; tracer 1 μg/kg, after vehicle): > 5 fold
CCOC(=O)c1ncn2c1Cn1c(C)nnc1-c1cc(OC)ccc1-2 [Ethyl 3-methoxy-7-methyl-9H-benzo[f]imidazo[1,5-a][1,2,4]tri] | – | – | effect on binding of Ro 15-4513 in hippocampus (GABAAα5 receptor; 0.01-10 mg/kg): blocked the binding of Ro154513 in the hippocampus; effect on binding/levels of Ro 15-4513 in cerebellum (GABAAα5 receptor; 0.01-10 mg/kg): did not affect binding of Ro15413 in the cerebellum
Clc1ccc2c(c1)-n1nncc1Cc1c(COCc3ccccc3)ncn1-2 [Compound 544] | < 100 nM | 5 to 20% | –
COCc1nnc2n1Cc1c(C3=NC[C@@H](c4ccc(Cl)cc4)O3)ncn1-c1ccc(Cl)cc1-2 [Compound 717] | < 100 nM | > 50% | –
COc1ccc2c(c1)-n1nncc1Cc1c(C#Cc3ccnn3C)ncn1-2 [Compound 669] | < 100 nM | > 50% | –
COCc1nnc2n1Cc1c(C#Cc3ccc(OC)nc3)ncn1-c1ccc(Cl)cc1-2 [Compound 527] | < 100 nM | 20 to 50% | –
Cc1noc(-c2ncn3c2Cc2c(Cc4cccc(F)c4)nnn2-c2cc(OC(F)F)ccc2-3)n1 [Compound 491] | < 100 nM | 20 to 50% | –
COCc1nnn2c1Cc1c(C#Cc3cnc(OC)s3)ncn1-c1ccc(Cl)cc1-2 [Compound 644] | < 100 nM | 20 to 50% | –
COCc1nnc2n1Cc1c(C#Cc3ccc4nccn4c3)ncn1-c1ccc(Cl)cc1-2 [Compound 678] | < 100 nM | 20 to 50% | –
Cc1nc(-c2ncn3c2Cc2cnnn2-c2cc(Cl)ccc2-3)no1 [Compound 539] | < 100 nM | 5 to 20% | –
COCc1nnc2n1Cc1c(C#Cc3ccc(C(C)C)cc3)ncn1-c1ccc(OC)cc1-2 [Compound 716] | < 100 nM | 5 to 20% | –
FC(F)(F)c1ccc2c(c1)-n1nncc1Cc1c(C3=NC[C@@H](c4ccccc4)O3)ncn1-2 [Compound 624] | < 100 nM | 5 to 20% | –
COCc1nnc2n1Cc1c(C#Cc3cncc(OC)c3)ncn1-c1ccc(Cl)cc1-2 [Compound 559] | < 100 nM | 5 to 20% | –
COc1ccc2c(c1)-n1nncc1Cc1c(C#Cc3cnc(C)n3C)ncn1-2 [Compound 667] | < 100 nM | > 50% | –
COCc1nnn2c1Cc1c(C#Cc3ccc(OC)nc3)ncn1-c1ccc(Cl)cc1-2 [Compound 633] | < 100 nM | 20 to 50% | –
COCc1nnc2n1Cc1c(C#Cc3ccc(=O)n(C)c3)ncn1-c1ccc(OC)cc1-2 [Compound 676] | < 100 nM | 5 to 20% | –
COCc1nnn2c1Cc1c(C#Cc3ccc(OC)nc3)ncn1-c1ccc(OC)cc1-2 [Compound 641] | < 100 nM | 20 to 50% | –
COc1ccc([C@@H]2COC(c3ncn4c3Cc3cnnn3-c3cc(OC)ccc3-4)=N2)cc1 [Compound 520] | < 100 nM | 5 to 20% | –
COc1ccc2c(c1)-n1nncc1Cc1c(C#Cc3c[nH]nc3OC)ncn1-2 [Compound 663] | < 100 nM | 20 to 50% | –
COCc1nnc2n1Cc1c(C#Cc3ccc(OC)c(C)n3)ncn1-c1ccc(Cl)cc1-2 [Compound 581] | < 100 nM | 20 to 50% | –
Cc1nc(-c2ncn3c2Cc2c(Cc4ccc(F)cc4)nnn2-c2cc(C(F)(F)F)ccc2-3)no1 [Compound 493] | < 100 nM | 5 to 20% | –

Molecule | Ki (α5β3γ2 GABAA receptors) | activation at 0.1 µM (GABAA receptors (α5β2γ2)) | further results
COCc1nnc2n1Cc1c(C#Cc3ccn(C)n3)ncn1-c1ccc(Cl)cc1-2 [Compound 683] | < 100 nM | > 50% | –
COCc1nnc2n1Cc1c(C#Cc3ccc(OC)cc3)ncn1-c1ccc(Cl)cc1-2 [Compound 526] | < 100 nM | 5 to 20% | –
COCc1nnc2n1Cc1c(C#Cc3cnc(OC)c(C)c3)ncn1-c1ccc(Cl)cc1-2 [Compound 698] | < 100 nM | 5 to 20% | –
COc1ccc2c(c1)-n1nncc1Cc1c(C#Cc3ccn(C)n3)ncn1-2 [Compound 670] | < 100 nM | > 50% | –
CCOc1ccc(C#Cc2ncn3c2Cn2c(COC)nnc2-c2cc(OC)ccc2-3)cn1 [Compound 710] | < 100 nM | 5 to 20% | –
COc1ccc2c(c1)-n1nncc1Cc1c(C3=NC[C@@H](c4ccccc4)O3)ncn1-2 [Compound 512] | < 100 nM | 5 to 20% | –
Brc1ccc2c(c1)-n1nncc1Cc1c(C3=N[C@H](c4ccccc4)CO3)ncn1-2 [Compound 505] | < 100 nM | 20 to 50% | –
COCc1nnc2n1Cc1c(C3=NC(C)CO3)ncn1-c1ccc(Cl)cc1-2 (centres unmarked) [Compound 243] | < 100 nM | 20 to 50% | –
COc1ccc2c(c1)-n1nncc1Cc1c(C#Cc3ccc(OC)nc3)ncn1-2 [Compound 530] | < 100 nM | 5 to 20% | –
Cc1ncc(C#Cc2ncn3c2Cc2cnnn2-c2cc(Cl)ccc2-3)n1C [Compound 666] | < 100 nM | 20 to 50% | –
COCc1nnc2n1Cc1c(C#Cc3ccnc(OC)c3)ncn1-c1ccc(Cl)cc1-2 [Compound 570] | < 100 nM | 5 to 20% | –
CC(C)c1nc(-c2ncn3c2Cc2cnnn2-c2cc(Cl)ccc2-3)no1 [Compound 538] | < 100 nM | 20 to 50% | –
COCc1nnc2n1Cc1c(C#Cc3ccc(OC)nc3)ncn1-c1ccc(OC)cc1-2 [Compound 703] | < 100 nM | 20 to 50% | –
CC(C)(C)c1nc(-c2ncn3c2Cc2cnnn2-c2cc(Cl)ccc2-3)no1 [Compound 536] | < 100 nM | 20 to 50% | –
COCc1nnc2n1Cc1c(C#Cc3ccc(OC(C)C)nc3)ncn1-c1ccc(OC)cc1-2 [Compound 711] | < 100 nM | 5 to 20% | –
COc1ccc2c(c1)-n1nncc1Cc1c(C3=N[C@H](c4ccc(F)cc4)CO3)ncn1-2 [Compound 519] | < 100 nM | 20 to 50% | –
Clc1ccc([C@@H]2COC(c3ncn4c3Cc3cnnn3-c3cc(Cl)ccc3-4)=N2)cc1 [Compound 518] | < 100 nM | 5 to 20% | –
CC(C)c1noc(-c2ncn3c2Cc2c(Cc4ccc(F)cc4)nnn2-c2cc(OC(F)F)ccc2-3)n1 [Compound 494] | < 100 nM | 20 to 50% | –
COCc1nnc2n1Cc1c(C#Cc3ccnn3C)ncn1-c1ccc(Cl)cc1-2 [Compound 682] | < 100 nM | > 50% | –
COCc1nnc2n1Cc1c(C#Cc3nc(C)cs3)ncn1-c1ccc(Cl)cc1-2 [Compound 605] | < 100 nM | > 50% | –

Source: patent US11414425B2 (priority 2018, dated 2022)
